Test results reported in ChEMBL document CHEMBL5365526 (J Med Chem, 2023).
Active and inactive are the calls of the source. The rule behind the calls is not given here.

target: von Hippel-Lindau disease tumor suppressor/Mitogen-activated protein kinase 7 (Homo sapiens, UniProt Q13164+P40337); assay: PROTAC activity at VHL/ERK5 in human A-375 cells assessed as induction of ERK5 degradation at 100 nM incubated for 24 hrs by western blot analysis; type: cell-based; conditions: not given
Sequence (P40337 whole entry partner): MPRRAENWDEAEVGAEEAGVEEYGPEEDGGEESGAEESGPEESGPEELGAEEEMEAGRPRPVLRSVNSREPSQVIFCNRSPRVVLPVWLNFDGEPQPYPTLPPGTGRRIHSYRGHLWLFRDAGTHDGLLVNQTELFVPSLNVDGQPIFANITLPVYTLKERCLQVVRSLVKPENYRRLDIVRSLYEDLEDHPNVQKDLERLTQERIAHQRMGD
Sequence (Q13164 2-816 limits assumed): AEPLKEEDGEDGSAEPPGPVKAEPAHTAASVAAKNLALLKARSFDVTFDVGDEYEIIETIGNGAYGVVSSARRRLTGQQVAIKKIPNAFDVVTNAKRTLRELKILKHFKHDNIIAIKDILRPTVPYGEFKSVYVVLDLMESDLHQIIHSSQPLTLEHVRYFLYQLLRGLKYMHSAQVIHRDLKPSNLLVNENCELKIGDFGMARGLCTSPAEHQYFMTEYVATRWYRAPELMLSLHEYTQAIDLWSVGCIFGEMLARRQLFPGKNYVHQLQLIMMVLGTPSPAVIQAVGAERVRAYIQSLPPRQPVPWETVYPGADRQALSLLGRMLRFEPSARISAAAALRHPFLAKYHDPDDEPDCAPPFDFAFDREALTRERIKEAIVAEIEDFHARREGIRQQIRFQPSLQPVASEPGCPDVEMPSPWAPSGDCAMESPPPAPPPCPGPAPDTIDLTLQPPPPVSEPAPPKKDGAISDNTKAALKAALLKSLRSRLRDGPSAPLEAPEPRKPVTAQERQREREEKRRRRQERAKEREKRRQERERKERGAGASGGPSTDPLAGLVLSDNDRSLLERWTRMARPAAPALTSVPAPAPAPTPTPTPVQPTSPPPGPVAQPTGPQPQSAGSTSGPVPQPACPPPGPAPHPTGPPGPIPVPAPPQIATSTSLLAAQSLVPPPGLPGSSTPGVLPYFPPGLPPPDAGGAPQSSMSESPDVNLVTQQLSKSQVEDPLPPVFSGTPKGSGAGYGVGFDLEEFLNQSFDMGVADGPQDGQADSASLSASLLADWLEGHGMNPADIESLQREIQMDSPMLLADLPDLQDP

SMILES | Activity
COc1cc(NC(=O)NCCOCCOCCNc2cccc3c2C(=O)N(C2CCC(=O)NC2=O)C3=O)ccc1Nc1ncc2c(n1)N(C)c1ccccc1C(=O)N2C (centres undefined) | inactive
COc1cc(N2CCN(CCOCCOCCCN[C@H](C(=O)N3C[C@H](O)C[C@H]3C(=O)N[C@@H](C)c3ccc(-c4scnc4C)cc3)C(C)(C)C)CC2)ccc1Nc1ncc2c(n1)N(C)c1ccccc1C(=O)N2C | Active
COc1cc(NC(=O)CCCCCn2cc(CCNc3cccc4c3C(=O)N(C3CCC(=O)NC3=O)C4=O)nn2)ccc1Nc1ncc2c(n1)N(C)c1ccccc1C(=O)N2C (centres undefined) | inactive
COc1cc(N2CCN(CCCCCC(=O)N[C@H](C(=O)N3C[C@H](O)C[C@H]3C(=O)N[C@@H](C)c3ccc(-c4scnc4C)cc3)C(C)(C)C)CC2)ccc1Nc1ncc2c(n1)N(C)c1ccccc1C(=O)N2C | Active
COc1cc(NC(=O)CNc2cccc3c2C(=O)N(C2CCC(=O)NC2=O)C3=O)ccc1Nc1ncc2c(n1)N(C)c1ccccc1C(=O)N2C (centres undefined) | inactive
COc1cc(NC(=O)NCCOCCNc2cccc3c2C(=O)N(C2CCC(=O)NC2=O)C3=O)ccc1Nc1ncc2c(n1)N(C)c1ccccc1C(=O)N2C (centres undefined) | inactive
COc1cc(C(=O)N2CCN(C(=O)CCCCC#Cc3cccc4c3CN(C3CCC(=O)NC3=O)C4=O)CC2)ccc1Nc1ncc2c(n1)N(C)c1ccccc1C(=O)N2C (centres undefined) | inactive
COc1cc(NC(=O)NCCCNc2cccc3c2C(=O)N(C2CCC(=O)NC2=O)C3=O)ccc1Nc1ncc2c(n1)N(C)c1ccccc1C(=O)N2C (centres undefined) | inactive
COc1cc(N2CCN(CCCCCCCC(=O)N[C@H](C(=O)N3C[C@H](O)C[C@H]3C(=O)N[C@@H](C)c3ccc(-c4scnc4C)cc3)C(C)(C)C)CC2)ccc1Nc1ncc2c(n1)N(C)c1ccccc1C(=O)N2C | Active
COc1cc(N2CCN(CCOCCNc3cccc4c3C(=O)N(C3CCC(=O)NC3=O)C4=O)CC2)ccc1Nc1ncc2c(n1)N(C)c1ccccc1C(=O)N2C (centres undefined) | Active
COc1cc(N2CCN(CCCCC(=O)N[C@H](C(=O)N3C[C@H](O)C[C@H]3C(=O)N[C@@H](C)c3ccc(-c4scnc4C)cc3)C(C)(C)C)CC2)ccc1Nc1ncc2c(n1)N(C)c1ccccc1C(=O)N2C | Active
COc1cc(N2CCN(C(=O)CCCCC#Cc3cccc4c3CN(C3CCC(=O)NC3=O)C4=O)CC2)ccc1Nc1ncc2c(n1)N(C)c1ccccc1C(=O)N2C (centres undefined) | inactive
COc1cc(N2CCC(OCCCCCC(=O)N[C@H](C(=O)N3C[C@H](O)C[C@H]3C(=O)N[C@@H](C)c3ccc(-c4scnc4C)cc3)C(C)(C)C)CC2)ccc1Nc1ncc2c(n1)N(C)c1ccccc1C(=O)N2C | Active
COc1cc(N2CCN(CCCCCCCCC(=O)N[C@H](C(=O)N3C[C@H](O)C[C@H]3C(=O)N[C@@H](C)c3ccc(-c4scnc4C)cc3)C(C)(C)C)CC2)ccc1Nc1ncc2c(n1)N(C)c1ccccc1C(=O)N2C | Active
COc1cc(NC(=O)NCCOCCOCCOCCNc2cccc3c2C(=O)N(C2CCC(=O)NC2=O)C3=O)ccc1Nc1ncc2c(n1)N(C)c1ccccc1C(=O)N2C (centres undefined) | inactive
COc1cc(N2CCN(CCCCCCCCCC(=O)N[C@H](C(=O)N3C[C@H](O)C[C@H]3C(=O)N[C@@H](C)c3ccc(-c4scnc4C)cc3)C(C)(C)C)CC2)ccc1Nc1ncc2c(n1)N(C)c1ccccc1C(=O)N2C | Active
COc1cc(NC(=O)NCCCCCNc2cccc3c2C(=O)N(C2CCC(=O)NC2=O)C3=O)ccc1Nc1ncc2c(n1)N(C)c1ccccc1C(=O)N2C (centres undefined) | inactive
COc1cc(NC(=O)NCCCCCCNc2cccc3c2C(=O)N(C2CCC(=O)NC2=O)C3=O)ccc1Nc1ncc2c(n1)N(C)c1ccccc1C(=O)N2C (centres undefined) | inactive
COc1cc(N2CCN(CCCCCCCCCCC(=O)N[C@H](C(=O)N3C[C@H](O)C[C@H]3C(=O)N[C@@H](C)c3ccc(-c4scnc4C)cc3)C(C)(C)C)CC2)ccc1Nc1ncc2c(n1)N(C)c1ccccc1C(=O)N2C | Active
COc1cc(NC(=O)NCCCCNc2cccc3c2C(=O)N(C2CCC(=O)NC2=O)C3=O)ccc1Nc1ncc2c(n1)N(C)c1ccccc1C(=O)N2C (centres undefined) | inactive
COc1cc(C(=O)N2CCN(CCCCCC(=O)N[C@H](C(=O)N3C[C@H](O)C[C@H]3C(=O)N[C@@H](C)c3ccc(-c4scnc4C)cc3)C(C)(C)C)CC2)ccc1Nc1ncc2c(n1)N(C)c1ccccc1C(=O)N2C | Active
COc1cc(NC(=O)CCCCCCCCCCNc2cccc3c2C(=O)N(C2CCC(=O)NC2=O)C3=O)ccc1Nc1ncc2c(n1)N(C)c1ccccc1C(=O)N2C (centres undefined) | inactive
COc1cc(N2CCN(CCOCC#Cc3cccc4c3CN(C3CCC(=O)NC3=O)C4=O)CC2)ccc1Nc1ncc2c(n1)N(C)c1ccccc1C(=O)N2C (centres undefined) | Active

test system: A-375; assay: Inhibition of cell colony formation in human A-375 cells at 5 uM cultured in 8% FBS and measured after 7 days in presence of LPS by crystal violet staining based analysis; type: functional; conditions: time 7.0 day

SMILES | inhibition
CCOc1cc(N2CCC(O)CC2)ccc1Nc1ncc2c(n1)N(C)c1ccccc1C(=O)N2C | Active

test system: not listed separately; assay: Inhibition of M2 macrophage development in PMA-differentiated human THP-1 cells assessed as CD206 surface expression at 5 uM incubated for 48 hrs by flow cytometry (reference value: 53.4%); type: functional; parameters: scale not given: the % may be the effect or the level left; conditions: not given

SMILES | Activity [%]
CCOc1cc(N2CCC(O)CC2)ccc1Nc1ncc2c(n1)N(C)c1ccccc1C(=O)N2C | 44.5

test system: HCT-116; assay: Inhibition of cell colony formation in human HCT-116 cells at 5 uM cultured in 8% FBS and measured after 7 days in presence of LPS by crystal violet staining based analysis; type: functional; conditions: time 7.0 day

SMILES | inhibition
CCOc1cc(N2CCC(O)CC2)ccc1Nc1ncc2c(n1)N(C)c1ccccc1C(=O)N2C | Active

target: Mitogen-activated protein kinase 7 (Homo sapiens, UniProt Q13164); assay: Inhibition of ERK5 (unknown origin) by ADP-Glo kinase assay; conditions: not given
Sequence (Q13164 whole entry): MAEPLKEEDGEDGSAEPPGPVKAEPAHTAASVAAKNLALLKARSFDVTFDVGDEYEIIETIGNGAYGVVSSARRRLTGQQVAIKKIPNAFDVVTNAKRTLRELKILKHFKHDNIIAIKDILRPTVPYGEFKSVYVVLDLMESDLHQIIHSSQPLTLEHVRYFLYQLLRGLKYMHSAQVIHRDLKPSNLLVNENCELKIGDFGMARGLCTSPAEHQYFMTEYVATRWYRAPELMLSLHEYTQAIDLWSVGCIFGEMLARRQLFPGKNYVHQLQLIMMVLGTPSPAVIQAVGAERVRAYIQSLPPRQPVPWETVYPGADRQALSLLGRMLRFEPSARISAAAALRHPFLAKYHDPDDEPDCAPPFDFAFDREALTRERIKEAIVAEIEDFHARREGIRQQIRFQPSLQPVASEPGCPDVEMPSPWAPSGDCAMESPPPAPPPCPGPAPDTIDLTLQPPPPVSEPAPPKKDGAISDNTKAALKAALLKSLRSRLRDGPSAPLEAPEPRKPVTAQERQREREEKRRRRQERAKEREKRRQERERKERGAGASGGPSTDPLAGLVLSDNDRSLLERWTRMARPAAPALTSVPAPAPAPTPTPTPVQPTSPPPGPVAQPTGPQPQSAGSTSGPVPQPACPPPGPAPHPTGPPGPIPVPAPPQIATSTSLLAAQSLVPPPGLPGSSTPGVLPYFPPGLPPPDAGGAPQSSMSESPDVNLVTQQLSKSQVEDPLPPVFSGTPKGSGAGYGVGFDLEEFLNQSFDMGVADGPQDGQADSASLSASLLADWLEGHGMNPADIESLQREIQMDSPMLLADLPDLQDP

SMILES | IC50 [nM]
COc1cc(N2CCN(CCCCCCCC(=O)N[C@H](C(=O)N3C[C@H](O)C[C@H]3C(=O)N[C@@H](C)c3ccc(-c4scnc4C)cc3)C(C)(C)C)CC2)ccc1Nc1ncc2c(n1)N(C)c1ccccc1C(=O)N2C | 67.1
CCOC(=O)CCCCCCN1CCN(c2ccc(Nc3ncc4c(n3)N(C)c3ccccc3C(=O)N4C)c(OC)c2)CC1 | 27.1
COc1cc(N2CCNCC2)ccc1Nc1ncc2c(n1)N(C)c1ccccc1C(=O)N2C | 10.1
